This note sets out measurements from patent publication US20120035320A1, “POLYACRIDINE NUCLEIC ACID DELIVERY PEPTIDE COMPLEXES” (University of Iowa Research Foundation, priority 2010, published 2012).

“Also recorded” adds a separate entry of the source. Where two headings read alike, the source gives them in different places. No end group written: not given here. *: point of attachment. 6‑(9-acridinylamino)hexanoyl = O=C(CCCCCNc1c2ccccc2nc2ccccc12)*; Acr = acridine on the lysine ε-amine; PEG = not defined here Where only a bound is given, the exact number is not on record here.

Data set [1] relates to pGL3. Briefly: gel band shift assay of acridine PEGs and polyacridine PEG-peptides. The data set is classed as binding. The following applies: constant stoichiometry of 1 nmol per μg of DNA. The method, then: The samples were loaded onto a 1% agarose gel (50 ml) and electrophoresed in TAE buffer at 80 V for 90 min. […] The samples were applied to a 1% agarose gel and electrophoresed as described above.

Data set [2] has as its system pGL3. Nature of the data set: thiazole orange fluorophore exclusion assay of polyacridine-melittin peptides. As to conditions: pGL3, 0.1 μM thiazole orange. The format is binding. As to the method: The relative binding affinity of peptides for DNA was determined by a fluorophore exclusion assay (Rich, D. H., Gesellchen, P. D., Tong, A., Cheung, A., and Buckner, C. K. (1975) Alkylating derivatives of amino acids and peptides. Synthesis of N-maleoylamino acids, [1-(N-maleoylglycyl)cysteinyl]oxytocin, and [1-(N-maleoyl-11-aminoundecanoyl)cysteinyl]oxytocin. Effects on vasopressin-stimulated water loss from isolated toad bladder. J. Med. Chem. 18, 1004-1010). pGL3 (200 μl of 4 μg/ml in 5 mM Hepes pH 7.5 containing 0.1 μM thiazole orange) was combined with 0, 0.05, 0.1, 0.25, 0.35, 0.5, 1, and 2 nmols of peptide in 300 μl of Hepes and allowed to bind at RT for 30 min. Thiazole orange fluorescence was measured using an LS50B fluorometer (Perkin-Elmer, U.K.) by exciting at 498 nm while monitoring emission at 546 nm with the slit widths set at 10 nm. A fluorescence blank of thiazole orange in the absence of DNA was subtracted from all values before data analysis. The data is presented as nmol of peptide per μg of DNA versus the percent fluorescence intensity±the standard deviation determined by three independent measurements.

The test system of a further data set is Erythrocytes. Nature of the data set: RBC hemolysis assay. The data set is classed as cell-based, mice. As to conditions: for hemolytic activity when combined with pGL3: pH 7.4, peptide DNA polyplex 1.5 nmols and 7.5 μg pGL3. The method, then:
Whole blood was obtained from male ICR mice by heart puncture with heparinized 22 G needles and collected in conical tubes containing 10 ml of 0.15 M PBS (pH 7.4) prewarmed to 37° C. Erythrocytes were immediately separated from plasma by centrifugation at 2000 rpm for 2 min, washed three times with 10 ml of PBS, and then diluted to 1.5×10^8 cells/ml. Peptides were prepared at 15 μM and serially diluted to 10-0.01 μM, after which 100 μl was pipetted in triplicate into a MultiScreenHTS BV 96 well plate. Erythrocytes (50 μl, 7.5×10^6 cells) were added to the peptides and incubated at 37° C. for 1 h followed by filtration on a Multiscreen vacuum manifold (Millipore Corporation, Billerica, Mass.). The filtrate was measured for Abs410nm on a Biotech plate reader (Biotech Instruments Incorporated., Winooski, Vt.) and compared to the 100% hemolysis caused by replacing PBS with water. Peptide DNA polyplexes (1.5 nmols and 7.5 μg pGL3) were also assayed for hemolysis as described above.

Data set [3] concerns gastrocnemius muscle of ICR male mice. Briefly: intramuscle-electroporation dosing and bioluminescence imaging. The data set is classed as in vivo. The following applies: IM-EP. The method, then:
Male ICR mice (Harlan), weighing 25-30 g were prepared for IM-EP dosing by anesthetization with an intraperitoneal dose of 200 μl of ketamine/xylazine (20 mg/ml and 2 mg/ml, respectively). The hamstring muscles were sheared and swabbed with 70% ethanol prior to administering a 50 μl dose over 10 sec in normal saline to both gastrocnemius muscles in 2 mice by a 1 ml monoject syringe (1 cc, 28 G×½). After dosing the BTX 2-Needle Array Electrode was inserted into the skin with the electrodes straddling the dosing site. Successive electronic stimulation was generated by the EMC BTX 830, Square-wave Pulse Generator (BTX, Harvard Apparatus) as the power source. At 1 min post-administration of the DNA dose, the pulse generator delivered six successive 100 V pulses over 20 msec with a 100 msec interval between pulses (31).
Luciferase reporter gene expression was quantified by bioluminescence imaging (BLI) at 2-14 days following IM-EP using an IVIS Imaging System 200 Series (Xenogen) (Wu, J. C., Sundaresan, G., Iyer, M., and Gambhir, S. S. (2001) Noninvasive optical imaging of firefly luciferase reporter gene expression in skeletal muscles of living mice. Molecular Therapy: the Journal of the American Society of Gene Therapy 4, 297-306). Mice were anesthetized by isofluorane (2% flow with oxygen) and dosed intramuscularly with 40 μL of 30 mg per ml D-Luciferin (GoldBio). Bioluminescent images were acquired 5 min post substrate administration and acquired for 1 min with a 24.6 cm field of view. The resultant grayscale images with a colormap overlay were analyzed using the Igor Pro 4.09 software (Livinglmage). Luciferase expression is reported as photons/sec/cm^2/steradian within a uniformly defined region of interest.

Data set [4] can be described thus: particle size and zeta potential of polyacridine PEG-peptide DNA open polyplexes. The format is physicochemical. The following applies: for apparent particle diameter: QELS, 0.2 nmols per μg of DNA or higher. The method, then: Polyacridine PEG-peptide DNA polyplexes were formed by combining 10 μg of pGL3 (in 500 μl of 5 mM Hepes pH 7.4) with an equal volume containing either 1, 2, 4, 8, 12, 16, or 20 nmol of polyacridine PEG-peptide while vortexing. The polyplexes were equilibrated at RT for 30 min prior to analysis of particle size (QELS) and zeta potential using a Brookhaven ZetaPlus (Brookhaven Instruments, Holtsville, N.Y.). The particle size diameter and zeta potential are reported as the mean and standard deviation of ten measurements.

Where [5] appears, read: RBC hemolysis at pH 5.0, second value of the cell (pH 7.4:5.0), read-out: HL50 (μM) pH 5.0.
Where [6] appears, read: RBC hemolysis at pH 7.4, first value of the cell (pH 7.4:5.0), read-out: HL50 (μM) pH 7.4.

As for “PEG-Cys-Trp-(Lys)5: PEGylated Cys-Trp-Lys5 without acridine, SEQ ID NO: 19 (C(PEG)WKKKKK; reading uncertain; also: PEG5000 Da maleimide on Cys, printed as PEG-Cys-Trp-(Lys)5)”, in the data set on pGL3 [1], the “DNA band shift on agarose gel” value was “unable to cause a band DNA shift”.

For the compound “CWKKGIGAVLKVLTTGLPALISLIKRKRQQ [Cys-melittin]”, the “thiazole orange displacement, asymptote / equivalence point of fluorescence intensity” value in the data set on pGL3 [2] is “approximately 0.5 nmols of peptide per μg of DNA”. Also, the EC50 stood at 0.7 µM with Erythrocytes (setting [5]) and 1 µM in the data set with Erythrocytes (setting [6]). Also, in the data set on Erythrocytes, the “hemolytic activity when combined with pGL3” value (“hemolytic activity” for short) was “maintained their hemolytic activity; also recorded: nearly unchanged”.

As to “(CWKKGIGAVLKVLTTGLPALISLIKRKRQQ)2 [Dimeric-melittin]”, the EC50 in the data set on Erythrocytes (setting [5]) came out at 1.2 µM; in the data set with Erythrocytes (setting [6]) it was 1 µM.

With `CC[C@H](C)[C@H](NC(=O)CN)C(=O)NCC(=O)N[C@@H](C)C(=O)N[C@H](C(=O)N[C@@H](CC(C)C)C(=O)N[C@@H](CCCCN)C(=O)N[C@H](C(=O)N[C@@H](CC(C)C)C(=O)N[C@H](C(=O)N[C@H](C(=O)NCC(=O)N[C@@H](CC(C)C)C(=O)N1CCC[C@H]1C(=O)N[C@@H](C)C(=O)N[C@@H](CC(C)C)C(=O)N[C@H](C(=O)N[C@@H](CO)C(=O)N[C@@H](Cc1c[nH]c2ccccc12)C(=O)N[C@H](C(=O)N[C@@H](CCCCN)C(=O)N[C@@H](CCCNC(=N)N)C(=O)N[C@@H](CCCCN)C(=O)N[C@@H](CCCNC(=N)N)C(=O)N[C@@H](CCC(N)=O)C(=O)N[C@@H](CCC(N)=O)C(N)=O)[C@@H](C)CC)[C@@H](C)CC)[C@@H](C)O)[C@@H](C)O)C(C)C)C(C)C` [Melittin, reference compound], the EC50 with Erythrocytes (setting [5]) was found to be 2.3 µM; in the data set on Erythrocytes (setting [6]), 0.9 µM. Besides, the “hemolytic activity” value with Erythrocytes is “nearly unchanged”.

With “PEG-Cys-Trp-(Lys(Acr))5: PEG5000 Da-maleimide on Cys of Cys-Trp-Lys5, Lys ε-amines conjugated with 6-(9-acridinylamino) hexanoic acid; SEQ ID NO: 5 (C(PEG 5000 Da maleimide)WK(6‑(9-acridinylamino)hexanoyl)K(6‑(9-acridinylamino)hexanoyl)K(6‑(9-acridinylamino)hexanoyl)K(6‑(9-acridinylamino)hexanoyl)K(6‑(9-acridinylamino)hexanoyl))”, in the data set on pGL3 [1], the “DNA band shift on agarose gel” value was “complete retardation of DNA migration”. The “luciferase expression at day 2, fold decrease versus pGL3” value in data set [3] (formulation 0.2 nmol per μg of DNA, 1 μg pGL3, mice) came out at 100 fold. Besides, the “luciferase expression at day 2 compared with pGL3” value in data set [3] (open polyplex 2 nmol per μg of DNA, 1 μg pGL3, mice) is on record as “identical expression levels”. In addition, the “luciferase expression at day 2, fold lower than pGL3” value in data set [3] (open polyplex 4 nmol per μg of DNA, 1 μg pGL3, mice) is “approximately 10 fold”. Also, in data set [3] (open polyplexes 4 nmol per μg of DNA, mice), the “loss in expression across the 14 day sampling period” value was 2-3 fold. Further, the “decrease of expression over 14 days” value in data set [3] (open polyplexes 0.2 and 2 nmol per μg of DNA, mice) stood at 10 fold. In addition, the zeta potential asymptote in data set [4] (at 1 nmol per μg of DNA) was −5 mV.

“(m)GWKKGIGAVLKVLTTGLPALISLIKRKRQQ [Mal-melittin]”: the EC50 in the data set with Erythrocytes (setting [5]) stood at 4.8 µM; in the data set with Erythrocytes (setting [6]), 3.84 µM. Also, in the data set with Erythrocytes, the “hemolytic activity” value is “maintained their hemolytic activity”.

In the case of “Lys(Acr)-Arg-Lys(Acr)-Arg-Lys(Acr)-Arg-Lys(Acr)-Arg-Cys (K(Acr)RK(Acr)RK(Acr)RK(Acr)RC) [poly(Acr-Arg)4-Cys]”, the “thiazole orange displacement, asymptote / equivalence point of fluorescence intensity” value in the data set on pGL3 [2] is given as “approximately 0.4 nmols of peptide per μg of DNA”; in the data set on pGL3 [2] (listed as (Acr-Arg)4-Cys), 0.35 nmols of peptide per μg of DNA. Further, the EC50 with Erythrocytes (setting [5]) and with Erythrocytes (setting [6]) was over 10 µM throughout.

In the case of “PEG-Cys-Trp-(Lys(Acr))3: PEG5000 Da-maleimide on Cys of Cys-Trp-Lys3, Lys ε-amines conjugated with 6-(9-acridinylamino) hexanoic acid; SEQ ID NO: 3 (C(PEG 5000 Da maleimide)WK(6‑(9-acridinylamino)hexanoyl)K(6‑(9-acridinylamino)hexanoyl)K(6‑(9-acridinylamino)hexanoyl))”, the “DNA band shift on agarose gel” value in the data set with pGL3 [1] was “further retarded DNA migration”. Moreover, the apparent particle diameter entry is “approximately 200 nm” in data set [4] and 200 nm in data set [4] (listed as PEG-Cys-(Lys(Acr))3). For the same compound, in data set [4] (titrating with 0.1 to 2 nmol per μg of DNA), the “zeta potential over titration” value was −15 to −5 mV.

Turning to “PEG-Cys-Trp-(Lys(Acr))4: PEG5000 Da-maleimide on Cys of Cys-Trp-Lys4, Lys ε-amines conjugated with 6-(9-acridinylamino) hexanoic acid; SEQ ID NO: 4 (C(PEG 5000 Da maleimide)WK(6‑(9-acridinylamino)hexanoyl)K(6‑(9-acridinylamino)hexanoyl)K(6‑(9-acridinylamino)hexanoyl)K(6‑(9-acridinylamino)hexanoyl))”, the “DNA band shift on agarose gel” value in the data set with pGL3 [1] is recorded as “further retarded DNA migration”.
